According to patent US20230285372A1, “Pharmaceutical use of (E)-3-arylheterocyclylprop-2-enoic acid derivatives” (MEDCURIUS INC., priority 2020, published 2023):
Where two headings read alike, the source gives them in different places.

Test system: HT-22 cells
Assay: Protective effect on HT-22 cell damage caused by L-glutamate monosodium salt
Type: cell-based, mouse
Settings: 15 mM L-glutamate; for viability at 1.25 µM / viability at 2.5 µM / viability at 0.156 µM / viability at 10 µM / viability at 5 µM / viability at 0.078 µM / viability at 0.313 µM / viability at 0.625 µM: Mus musculus, 24 hours; for protection of HT22 cells against L-glutamate monosodium salt damage, in words: comparison with positive control drug DMF
Description: (§1) Well-proliferated HT-22 cells, derived from mouse hippocampal neuronal cells in logarithmic growth phase, were selected, and they were counted after being subjected to trypsin digestion and dispersion. The cell density was adjusted with DMEM/F12 medium (containing 10% FBS and 1% double antibody). The cells were then inoculated in a 96-well plate at a density of 2,000 cells per well, and cultured in a cell incubator at 37° C. in atmosphere containing 5% CO2 for 24 hours. For the control group and the L-glutamate monosodium salt group (model group), serum-free DMEM/F12 medium was added, and the other wells were added with tested compounds of different concentrations; except that the serum-free DMEM/F12 medium was added to the control group. L-glutamate monosodium salt solution at the final concentration of 15 mM was added to the remaining wells. After 24 hours, the cell viability was detected with a luminescent cell viability assay kit.
as §1, with “group,” for “group.”
as §1, with “2.000” for “2,000”, “group,” for “group.”

[1] = HT-22, Table 2, Conc 1.25 μM, L-Glu alone 27.83, read-out: Visibility %
[2] = HT-22, Table 2, Conc 2.5 μM, L-Glu alone 27.83, read-out: Visibility %
[3] = HT-22, Table 2, Conc 10 μM, L-Glu alone 27.83, read-out: Visibility %
[4] = HT-22, Table 2, Conc 0.078 μM, L-Glu alone 27.83, read-out: Visibility %
[5] = HT-22, 24 h, Table 1, Conc 0.078 μm, L-Glu alone 27.73 (I-5 32.92), read-out: cell viability
[6] = HT-22, 24 h, Table 1, Conc 0.156 μm, L-Glu alone 27.73 (I-5 32.92), read-out: cell viability
[7] = HT-22, 24 h, Table 1, Conc 0.313 μm, L-Glu alone 27.73 (I-5 32.92), read-out: cell viability
[8] = HT-22, 24 h, Table 1, Conc 0.625 μm, L-Glu alone 27.73 (I-5 32.92), read-out: cell viability
[9] = HT-22, 24 h, Table 1, Conc 1.25 μm, L-Glu alone 27.73 (I-5 32.92), read-out: cell viability
[10] = HT-22, 24 h, Table 1, Conc 2.5 μm, L-Glu alone 27.73 (I-5 32.92), read-out: cell viability
[11] = HT-22, 24 h, Table 1, Conc 5 μm, L-Glu alone 27.73 (I-5 32.92), read-out: cell viability
[12] = HT-22, 24 h, Table 1, Conc 10 μm, L-Glu alone 27.73 (I-5 32.92), read-out: cell viability

`COC(=O)/C=C/c1ncc[nH]1` [Compound I-22] gave a viability at 1.25 µM [1] of 40% and a viability at 2.5 µM [2] of 42.7%.

`CN(C)C(=O)/C=C/c1ccncn1` [Compound I-20] was tested, and the viability at 0.156 µM (HT-22, Table 2, Conc 0.156 μM, L-Glu alone 27.83, read-out: Visibility %) was 43.4%, the viability at 2.5 µM [2] was 57.1% and the viability at 10 µM [3] was 51.2%.

For `Cc1csc(/C=C/C#N)n1` [Compound I-30], the “protection of HT22 cells against L-glutamate monosodium salt damage, in words” value (“protection of HT22 cells” below) was “perform better than the positive control drug DMF”.

In the case of `COC(=O)/C=C/c1ncccn1` [Compound I-18], the viability at 5 µM (HT-22, Table 2, Conc 5 μM, L-Glu alone 27.83, read-out: Visibility %) is reported as 40.9%.

`COC(=O)/C=C/c1ncco1` [Compound I-27] was tested, and the “protection of HT22 cells” value was “perform better than the positive control drug DMF”.

`COC(=O)/C=C/c1nc(C)cs1` [Compound I-28] was tested, and the “protection of HT22 cells” value was “perform far better than the positive control drug DMF”.

`COC(=O)/C=C/c1nccn1C` [Compound I-23] was tested, and the “protection of HT22 cells” value was “equivalent to that of a positive control drug DMF”, the viability at 0.078 µM [4] was 65.4% and the viability at 0.313 µM (HT-22, Table 2, Conc 0.313 μM, L-Glu alone 27.83, read-out: Visibility %) was 38.3%. The viability at 1.25 µM [1] was 39%.

In the case of `CON(C)C(=O)/C=C/c1ccncc1` [Compound I-10], the viability at 0.078 µM [5] is reported as 44.7%, the viability at 0.156 µM [6] is reported as 43% and the viability at 0.313 µM [7] is reported as 43.7%. The viability at 0.625 µM [8] was 43.3%, the viability at 1.25 µM [9] was 41.9% and the viability at 2.5 µM [10] was 47.8%. For the same molecule, the viability at 5 µM [11] was 43.4% and the viability at 10 µM [12] was 37.5%.

`N#C/C=C/c1ccncc1` [Compound I-7] was tested, and the viability at 0.078 µM [5] was 48.8%, the viability at 0.156 µM [6] was 48% and the viability at 0.313 µM [7] was 42.8%. The viability at 0.625 µM [8] was 40.6%, the viability at 1.25 µM [9] was 55.5% and the viability at 5 µM [11] was 32.2%.

Molecule `COC(=O)NC(=O)/C=C/c1ccccn1` [Compound I-15] has a viability at 2.5 µM [2] of 43.1% and a viability at 10 µM [3] of 34.1%.

`CON(C)C(=O)/C=C/c1cccnc1` [Compound I-9] was tested, and the viability at 0.078 µM [5] was 35.5%, the viability at 0.156 µM [6] was 35.8% and the viability at 0.313 µM [7] was 40.8%. It also gave a viability at 0.625 µM [8] of 45.8%, a viability at 1.25 µM [9] of 41.6% and a viability at 2.5 µM [10] of 40.1%. The viability at 5 µM [11] was 43.4% and the viability at 10 µM [12] was 40.1%.

With `CN(C)C(=O)/C=C/c1cccnc1` [Compound I-12] the viability at 0.078 µM [5] was 48.9%, the viability at 0.313 µM [7] was 50.8% and the viability at 0.625 µM [8] was 49.5%. For the same molecule, the viability at 1.25 µM [9] was 45.6%, the viability at 2.5 µM [10] was 44.2% and the viability at 5 µM [11] was 39.3%. It also gave a viability at 10 µM [12] of 44.3%.

Work on `COC(=O)NC(=O)/C=C/c1cccnc1` [Compound I-16] yielded a viability at 0.078 µM [4] of 41.3%, a viability at 0.625 µM (HT-22, Table 2, Conc 0.625 μM, L-Glu alone 27.83, read-out: Visibility %) of 34.2% and a viability at 2.5 µM [2] of 40.4%.
